“And” between values parts separate entries of the source, which are not always exact repeats. Equal values may be shown once. Inconclusive results and toxic doses are left out. No stated cut-off is given here; in the data, active means T/C of 150% or more; inactive means T/C below 125%.
Tested on: L1210 leukemia ip in BDF1 mice, survival T/C
Experiment: NCI In Vivo Anticancer Drug Screen. Data for tumor model L1210 Leukemia (intraperitoneal) in B6D2F1 (BDF1) mice
Conditions: endpoint: mean survival time, higher = longer survival
How it was run: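 Tumor cells were implanted, animals were treated, and survival was followed. The result divides the treated measurement by the vehicle-control measurement.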

[1] = dose: 100.0 mg/kg/injection, schedule: Q04DX002 (ip), vehicle: saline with Tween-80
[2] = dose: 200.0 mg/kg/injection, schedule: Q04DX002 (ip), vehicle: saline with Tween-80
[3] = dose: 100.0 mg/kg/injection, schedule: Q04DX003 (ip), vehicle: saline with Tween-80
[4] = dose: 200.0 mg/kg/injection, schedule: Q04DX003 (ip), vehicle: saline with Tween-80
[5] = dose: 400.0 mg/kg/injection, schedule: Q04DX003 (ip), vehicle: saline with Tween-80
[6] = dose: 50.0 mg/kg/injection, schedule: Q01DX009 (ip), vehicle: saline with Tween-80
[7] = dose: 100.0 mg/kg/injection, schedule: Q01DX009 (ip), vehicle: Klucel (hydroxypropylcellulose) (HPC)
[8] = dose: 200.0 mg/kg/injection, schedule: Q01DX009 (ip), vehicle: Klucel (hydroxypropylcellulose) (HPC)
[9] = dose: 400.0 mg/kg/injection, schedule: Q01DX009 (ip), vehicle: Klucel (hydroxypropylcellulose) (HPC)

Measured: T/C

O=S1(=O)CCCCC1=C(c1ccccc1)c1ccccc1
inactive: [1] 89 % of control | [2] 89 % of control

c1ccc(-c2nnc(-c3ccccn3)nc2-c2ccccc2)cc1
inactive: [3] 95 % of control | [4] 104 % of control | [5] 112 % of control

O=C(O)CCC(=O)c1ccc2ccccc2c1
inactive: dose: 100.0 mg/kg/injection, schedule: Q04DX003 (ip), vehicle: Klucel (hydroxypropylcellulose) (HPC) 100 % of control | dose: 200.0 mg/kg/injection, schedule: Q04DX003 (ip), vehicle: Klucel (hydroxypropylcellulose) (HPC) 91 % of control | dose: 400.0 mg/kg/injection, schedule: Q04DX003 (ip), vehicle: Klucel (hydroxypropylcellulose) (HPC) 92 % of control

N#CC1C(=O)c2ccccc2C1=O
inactive: dose: 25.0 mg/kg/injection, schedule: Q01DX009 (ip), vehicle: saline with Tween-80 92 % of control | [6] 91 % of control | dose: 100.0 mg/kg/injection, schedule: Q01DX009 (ip), vehicle: saline with Tween-80 89 % of control | [3] 94 % of control

CCc1ccc(NC(=O)c2cc(OC)c(OC)c(OC)c2)cc1
inactive: [7] 100 % of control | [8] 97 % of control | [9] 101 % of control

O=C(CC(C(=O)c1ccccc1)c1ccccc1)c1ccccc1 (configuration not stated)
inactive: [7] 93 % of control and 89 % of control | [8] 103 % of control | [9] 94 % of control and 103 % of control

COc1cc2c(c3ccccc13)CCCC2=O
inactive: [3] 103 % of control | [4] 93 % of control | [5] 92 % of control

N=C(N)SCc1csc(N)n1
inactive: dose: 25.0 mg/kg/injection, schedule: Q04DX003 (ip), vehicle: saline 119 % of control | dose: 50.0 mg/kg/injection, schedule: Q04DX003 (ip), vehicle: saline 111 % of control | dose: 100.0 mg/kg/injection, schedule: Q01DX009 (ip), vehicle: saline 112 % of control | dose: 100.0 mg/kg/injection, schedule: Q04DX003 (ip), vehicle: saline 100 % of control and 117 % of control | dose: 200.0 mg/kg/injection, schedule: Q01DX009 (ip), vehicle: saline 96 % of control

Cc1c(Cl)cccc1NC(=O)Oc1ccccc1Cc1ccccc1
inactive: [6] 96 % of control and 102 % of control | dose: 100.0 mg/kg/injection, schedule: Q01DX001 (ip), vehicle: saline with Tween-80 95 % of control | [1] 96 % of control and 110 % of control | [3] 100 % of control | dose: 200.0 mg/kg/injection, schedule: Q01DX001 (ip), vehicle: saline with Tween-80 105 % of control | [2] 93 % of control and 92 % of control | [4] 94 % of control | dose: 400.0 mg/kg/injection, schedule: Q01DX001 (ip), vehicle: saline with Tween-80 86 % of control | dose: 400.0 mg/kg/injection, schedule: Q01DX009 (ip), vehicle: saline with Tween-80 97 % of control and 89 % of control | dose: 400.0 mg/kg/injection, schedule: Q04DX002 (ip), vehicle: saline with Tween-80 89 % of control and 91 % of control | [5] 86 % of control

— PubChem BioAssay AID248 (DTP/NCI, 2004)
